Measured values taken from patent publication US20170321214A1, “DEAD GUIDES FOR CRISPR TRANSCRIPTION FACTORS” (The Broad Institute Inc., priority 2014, published 2017).

Columns and labels:
[1] = tested on: Factor VII; settings: LNP siRNA systems containing these lipids; cited from earlier work
[2] = tested on: HBG1/2 promoter; assay: Off-target transcriptional activation using RNAseq; type: cell-based
Experimental: FIG. 7A-7C: The plots of FIG. 7 illustrate embodiments in which dRNAs can specifically upregulate gene expression, and have a specificity profile similar to 20 bp sgRNA activators. Sequences targeted to the HBG1/2 promoter were tested for off-target transcriptional activation using RNAseq. 20 nt sgRNAs with MS2 binding loops were co-transfected with dCas9 and the MPH activation complex. […] (In all cases, N=3 replicates/group).

[3] = tested on: dystrophin; settings: across 48 weeks, average; cited from earlier work
[4] = 20 nt sgRNA with MS2 loops + dCas9 + MPH

1,2-dilinoleyloxy-keto-N,N-dimethyl-3-aminopropane [DLinKDMA]
gene silencing potency series [1]: DLinKC2-DMA>DLinKDMA>DLinDMA>>DLinDAP

CCCCC/C=C\C/C=C\CCCCCCCC(=O)OCC(CN(C)C)OC(=O)CCCCCCC/C=C\C/C=C\CCCCC (stereo not drawn) [DLinDAP, 1,2-dilineoyl-3-dimethylammonium-propane]
gene silencing potency series [1]: DLinKC2-DMA>DLinKDMA>DLinDMA>>DLinDAP

CCCCC/C=C\C/C=C\CCCCCCCCOCC(CN(C)C)OCCCCCCCC/C=C\C/C=C\CCCCC (stereo not drawn) [DLinDMA, 1,2-dilinoleyloxy-3-N,N-dirnethylamiopropane]
gene silencing potency series [1]: DLinKC2-DMA>DLinKDMA>DLinDMA>>DLinDAP

CCCCC/C=C\C/C=C\CCCCCCCCC1(CCCCCCCC/C=C\C/C=C\CCCCC)OCC(CCN(C)C)O1 (stereo not drawn) [DLinKC2-DMA, 1,2-dilinoleyl-4-(2-dimethylaminoethyl)-[1,3]-dioxolane]
gene silencing potency series [1]: DLinKC2-DMA>DLinKDMA>DLinDMA>>DLinDAP

SEQ ID NO 90: 20 nt sgRNA with MS2 binding loops targeted to the HBG1/2 promoter, second guide (guide CCAGTGAGGCCAGGGGCCGG; listed as DNA, chemistry not given here)
significantly upregulated genes apart from HBG1/2 [2, 4]: 55

SEQ ID NO 97: dRNA targeted to the HBG1/2 promoter, second guide (guide GAGGCCAGGGGCCGG; listed as DNA, chemistry not given here)
significantly upregulated genes apart from HBG1/2 ([2]; dRNA + active Cas9 + MPH): 31

SEQ ID NO 120: 20 nt sgRNA with MS2 binding loops targeted to the HBG1/2 promoter, first guide (guide GGCTAGGGATGAAGAATAAA; listed as DNA, chemistry not given here)
significantly upregulated genes apart from HBG1/2 [2, 4]: Zero

SEQ ID NO 125: dRNA targeted to the HBG1/2 promoter, first guide (guide GGGATGAAGAATAAA; listed as DNA, chemistry not given here)
significantly upregulated genes apart from HBG1/2 ([2]; dRNA + active Cas9 + MPH): Zero

eteplirsen
dystrophin positive fibers compared to baseline [3]: 47%
